The values that follow come from patent US20240325394A1, “SALT AND CRYSTAL FORM OF NITROGEN-CONTAINING HETEROCYCLIC DERIVATIVE, PREPARATION METHOD THEREFOR AND APPLICATION THEREOF” (SHANGHAI HANSOH BIOMEDICAL CO., LTD., priority 2020, published 2024).

pIC50: −log10 of the molar value. Read-outs that look alike come from different tables or passages of the source.

Series [1] can be described thus: Pharmacokinetics in MiaPaca 2 tumor-bearing mice (plasma, tumor tissue). The note with it: female, mouse, po, p.o. 6 mg/kg. Type of series: in vivo. On the procedure: The pharmacokinetic behavior of the compound of the embodiment 13-1 and AMG-510 compound, administered orally at a dose of 6 mg/kg, in mice (plasma, tumor tissue and intestine) was studied using MiaPaca 2 tumor-bearing mice as test animals.
24 MiaPaca 2 tumor-bearing mice, females. 3 for each time point (0 h, 1 h, 2 h, 4 h, 6 h, 8 h, 16 h, 24 h). Shanghai xipuer-bikai Laboratory Animal Co., Ltd, Animal Production License No. (SCXK (Shanghai) 2018-0006.
Embodiment compound 13-1 and compound AMG-510 were weighed and dissolved in the solution, the mixture was shaken well, and ultrasound was performed for 15 minutes to obtain a uniform suspension with a concentration of 0.6 mg/mL.
MiaPaca 2 tumor-bearing mice were administered at a dose of 6 mg/kg in a volume of 10 mL/kg, respectively, based on body weight p.o. after fasting (animals were not administered at point 0 h).
Before and after administration, mice were sacrificed with CO2, 0.5 mL blood was collected from the heart and placed in EDTA-2K tube, centrifuged at 4° C. […] The duodenum, ileum and colon tissues were cut with scissors, the contents were removed and cleaned twice with PBS, after absorbing water with absorbent paper, they were weighed, placed in a 2 mL centrifuge tube and stored at −80° C.

The nature of series [2]: Plasma stability, mouse plasma. Type of series: in vitro ADME. The procedure:
(§1) Animal or human whole blood was collected, then the blood was put into a test tube containing anticoagulant, centrifuged at 3500 rpm for 10 min, and the upper layer of pale yellow plasma was collected. • 2) 10 μM of tested compound (m/M/V=C)
(§2) The compound was weighed, the stock solution was prepared with DMSO and the working solution was prepared with 100 mM phosphate buffer. • 3) 10 μM of positive control • (1) Propantheline (Propantheline Mr=449.4 Da)
(§3) • 1) 285 μL of plasma and 15 μL of 10 μM compound (tested compound) were added in turn in a 96-well plate, and incubated at 37° C. • 2) 40 μL was taken out at 0, 15, 30, 60, 90, 120 min, respectively, and 160 μL of acetonitrile termination solution containing internal standard was added. • 3) After centrifugation (3500 rpm, 10 min), 50 μL of supernatant was taken out, and then diluted with 50 μL DDH2O and injected to LC-MS/MS.
(§4) • instrument: Shimadzu LC-20 AD • chromatographic column: phenomenex Gemiu® C18 (50*4.6 mm, 5 μM particle size); • mobile phase: A: acetonitrile, B: 0.1% formic acid solution 0-8 min: 5% A→95% A, 2.0-2.1 min: 90% A→5% A; flow rate: 0.8 mL/min; running time: 5.0 min; injection volume: 5 μL.
(§5) • instrument: API4000 Liquid Chromatography-Mass Spectrometry, AB, USA; • the ion source was electrospray ionization source (ESI); • the temperature of dry gas (N2) was 500° C.; • electrospray voltage was 5500V; • the detection method was positive ion detection; • the scanning mode was selective response monitoring (MRM); • the scanning time was 0.1 s.

Series [3] in a line: Plasma stability, human plasma. As to conditions: human. Type of series: in vitro ADME. The procedure: as §1, §2, §3, §4, §5
A short description of series [4]: Plasma stability, rat plasma. Type of series: in vitro ADME. The procedure:
as §1, §2, §3, §4, §5

Series [5] is described as follows: Plasma stability, dog plasma. Type of series: in vitro ADME. On the procedure:
as §1, §2, §3, §4, §5

Series [6] has as its system Mia PaCa-2 cells (KRAS G12C mutant). Briefly: Inhibition of Mia PaCa-2 cell proliferation (CellTiter-Glo, 72 h). Type of series: cell-based, human. The procedure: (§6) When NCI-H358 or Mia PaCa-2 cells were cultured to the appropriate fusion level, the NCI-H358 or Mia PaCa-2 cells were collected, and the cells were adjusted to the appropriate cell concentration using a complete medium, and the cell suspension was spread in a 96-well plate, 90 μL per well, and placed in a 37° C., 5% CO2 incubator overnight; and compound solutions of different concentrations were prepared using DMSO and culture medium; and a solvent control was set, the compound solution was added to a 96-well plate, 10 μL per well, at 37° C. in a 5% CO2 incubator for 72 hours; CellTiter-Glo solution was added thereto and the mixture was mixed well by shaking, incubated for 10 min in the dark, and read by BioTek Synergy H1 microplate reader.
(§7) The luminescence signal values were used to calculate the inhibition rate, the concentration and the inhibition rate were fitted to a nonlinear regression curve using Graphpad Prism software, then the IC50 value was obtained.

In series [7] the test system is NCI-H358 cells (KRAS G12C mutant). Briefly: Inhibition of NCI-H358 cell proliferation (CellTiter-Glo, 72 h). Type of series: cell-based, human. The procedure:
as §6, §7
(In general: In ATP-based viability assays light output follows the ATP content of the culture.)

A further series concerns the target T1, human KRAS G12C protein (Homo sapiens, UniProt P01116, G12C).
T1 construct: purchased Beijing SinoBiological Co., Ltd. 12259-H07E2
Briefly: Thermal shift: melting temperature of KRAS G12C protein. Type of series: binding. The note with it: for Tm: KRAS G12C protein 5.37 μM with compound 10 μM, 1 hour; for ΔTm at 10 µM: Tm minus Tm of DMSO solvent control, compound 10 μM. The procedure:
In this experiment, the thermal shift method was used to test the degree of change in the melting temperature (Tm) of the KRAS G12C protein before and after the binding of the compound, in order to characterize the ability of the compound to improve the stability of the KRAS G12C protein.
The specific experiment operation was as follows: • A solution containing […] (pH 7.5), 1 mM DTT, 5× SYPRO Orange and 150 mM NaCl was prepared as the experimental buffer, and a final concentration of 5.37 μM human KRAS G12C protein was added thereto. The reaction mixture was divided into 8 rows of PCR tubes, each 19.5 μL, and 0.5 μL of the test compound or DMSO were added respectively, so that the total reaction system was 20 μL, the final concentration of the compound was 10 μM, and 2.5% DMSO was set as the solvent control. After incubating at room temperature in the dark for 1 hour, the PCR tube was put into the PCR instrument, QuantStudio Software v1.3 was opened, and the melting temperature of KRAS G12C protein in different treatment groups was detected by melt curve function (heating from 25° C. to 95° C., 0.03° C./s).
The experimental data file of PCR instrument was imported into thermal shift software, and the melting temperature (Tm) of each treatment group was obtained, and the change value of melting temperature (ATm) was obtained by subtracting the Tm of DMSO solvent control group.

One may read the MRT as a mean duration of stay, worked out from the concentration-time curve. One may read the half-life as the time needed for the level to fall by half in the phase considered. Usually pIC50 stands for the negative decadic logarithm of the IC50, by convention in mol/L. One may read the Tm as the temperature at the midpoint of the melting transition. Broadly, the ΔTm is the shift of the melting midpoint relative to a reference.

As to `C=CC(=O)N1CCN(c2nc(=O)n(-c3c(C)ccnc3C(C)C)c3nc(-c4c(O)cccc4F)c(F)cc23)[C@@H](C)C1` [AMG 510, reference compound], the figures for the mean residence time MRT in series [1] (Plasma) and in series [1] (Tumor) were 0.8 h and 0.7 h, respectively. For the same molecule, the half-life in series [1] (Plasma) and in series [1] (Tumor) was 0.3 h throughout. Further, the Kp in series [1] (exposure in tumor to exposure in plasma, read-out: Ratio (T/P)) was found to be 0.42. The “Residual rate (%) 0 min” value in series [2] (mouse plasma, 37° C., 0 min) is 100.00%; in series [3] (0 min, 0.5 μM), 100.00%; in series [4] (rat plasma, 37° C., 0 min), 100.00%; in series [5] (dog plasma, 37° C., 0 min), 100.00%. For the same molecule, the “Residual rate (%) 15 min” value was 97.50% in series [2] (mouse plasma, 37° C., 15 min); 93.77% in series [3] (15 min, 0.5 μM); 100.85% in series [4] (rat plasma, 37° C., 15 min); 98.88% in series [5] (dog plasma, 37° C., 15 min). In addition, the “Residual rate (%) 30 min” value in series [2] (mouse plasma, 37° C., 30 min) was 82.58%; in series [3] (30 min, 0.5 μM), 85.72%; in series [4] (rat plasma, 37° C., 30 min), 93.03%; in series [5] (dog plasma, 37° C., 30 min), 101.14%. In addition, the “Residual rate (%) 60 min” value turned out to be 81.82% in series [2] (mouse plasma, 37° C., 60 min); 82.51% in series [3] (60 min, 0.5 μM); 77.54% in series [4] (rat plasma, 37° C., 60 min); 93.43% in series [5] (dog plasma, 37° C., 60 min). Also, the “Residual rate (%) 120 min” value in series [2] (mouse plasma, 37° C., 120 min) stood at 63.23%; in series [3] (120 min, 0.5 μM) it was 64.44%; in series [4] (rat plasma, 37° C., 120 min), 56.77%; in series [5] (dog plasma, 37° C., 120 min), 91.92%. Also, the half-life at 0.5 μM in series [2] (mouse, plasma) was 3.08 h; in series [3] (plasma), 3.31 h; in series [4] (rat, plasma) it was 2.29 h; in series [5] (dog, plasma), 14.7 h.
As for `C=CC(=O)N1CCN(c2nc(=O)n(-c3c(SC)ccnc3C(C)C)c3nc(-c4c(O)cccc4F)c(F)cc23)[C@@H](C)C1` [Embodiment 1-1, P-4-((S)-4-acryloyl-2-methylpiperazin-1-yl)-6-fluoro-7-(2-fluoro-6-hydroxyphenyl)-1-(2-isopropyl-4-(methylthio)pyridin-3-yl)pyrido[2,3-d]pyrimidin-2(1H)-one], the pIC50 is 7.26 in series [6] and 7.55 in series [7].
As for `C=CC(=O)N1CCN(c2nc(=O)n(-c3c(SC)ccnc3C(C)C)c3nc(-c4c(O)cccc4F)c(Cl)cc23)[C@@H](C)C1` [Embodiment 3, 4-((S)-4-Acryloyl-2-methylpiperazin-1-yl)-6-chloro-7-(2-fluoro-6-hydroxyphenyl)-1-(2-isopropyl-4-(methylthio)pyridin-3-yl)pyrido[2,3-d]pyrimidin-2(1H)-one], at human KRAS G12C protein, the melting temperature (Tm) was found to be 61.5 °C and the ΔTm at 10 µM is 10.9 °C. Also, the negative-log IC50 (pIC50) in series [6] (Homo sapiens, MIA PaCa-2, 72 h) is 7.39. Besides, in series [7] (Homo sapiens, NCI-H358, 72 h), the pIC50 is 7.85.
On to `C=CC(=O)N1CCN(c2nc(=O)n(-c3c(SC)ccnc3C(C)C)c3nc(-c4c(F)cccc4SC)c(F)cc23)[C@@H](C)C1` [Embodiment 4, 4-((S)-4-Acryloyl-2-methylpiperazin-1-yl)-6-fluoro-7-(2-fluoro-6-(methylthio)phenyl)-1-(2-isopropyl-4-(methylthio)pyridin-3-yl)pyrido[2,3-d]pyrimidin-2(1H)-one], for which, at human KRAS G12C protein, the Tm came out at 61.2 °C. For the same molecule, the shift in melting temperature (ΔTm) at 10 µM at human KRAS G12C protein is 11.7 °C. Moreover, the pIC50 in series [6] (Homo sapiens, MIA PaCa-2, 72 h) was 7.33; in series [7] (Homo sapiens, NCI-H358, 72 h) it was 7.32.
`C=CC(=O)N1CCN(c2nc(=O)n(-c3c(SC)ccnc3C(C)C)c3nc(-c4c(F)cccc4F)c(Cl)cc23)[C@@H](C)C1` [Embodiment 12, (S)-4-(4-acryloyl-2-methylpiperazin-1-yl)-7-(2,6-difluorophenyl)-6-chloro-1-(2-isopropyl-4-(methylthio)pyridin-3-yl)pyrido[2,3-d]pyrimidin-2(1H)-one]: the pIC50 in series [6] (Homo sapiens, MIA PaCa-2, 72 h) was 7.17; in series [7] (Homo sapiens, NCI-H358, 72 h) it was 7.10.
